What is called IC50 is the concentration that gives 50% inhibition.

Results on 24 compounds are retold here after patent publication US9725445B2, “Cycloalkyl nitrile pyrazolo pyridones as Janus kinase inhibitors” (Merck Sharp & Dohme Corp., priority 2013, dated 2017).

One experiment has as its target JAK2 (Homo sapiens (Human), UniProt O60674). As to the kind of experiment: Jak biochemical HTRF assay, JAK2. The settings on record: HTRF biochemical assay, recombinant GST-tagged catalytic domain; read-out: JAK2 IC50. A general note: Time-resolved FRET reads energy transfer from a long-lived donor to a nearby acceptor.
The target in a further experiment is JAK1 (Homo sapiens (Human), UniProt P23458). As to the kind of experiment: Jak biochemical HTRF assay, JAK1. To be noted: HTRF biochemical assay, recombinant GST-tagged catalytic domain; read-out: JAK1 IC50.

The structures appear in SMILES notation.

JAK1, sequence (P23458 875-1153): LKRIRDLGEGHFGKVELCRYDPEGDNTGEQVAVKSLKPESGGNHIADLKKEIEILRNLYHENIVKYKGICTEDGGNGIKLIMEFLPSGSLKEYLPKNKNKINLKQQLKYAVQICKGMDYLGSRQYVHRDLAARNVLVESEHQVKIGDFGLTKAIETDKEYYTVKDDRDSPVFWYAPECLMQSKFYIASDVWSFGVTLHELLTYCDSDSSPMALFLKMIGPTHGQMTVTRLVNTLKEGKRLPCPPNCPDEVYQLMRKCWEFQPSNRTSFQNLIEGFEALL
JAK2, sequence (O60674 849-1124): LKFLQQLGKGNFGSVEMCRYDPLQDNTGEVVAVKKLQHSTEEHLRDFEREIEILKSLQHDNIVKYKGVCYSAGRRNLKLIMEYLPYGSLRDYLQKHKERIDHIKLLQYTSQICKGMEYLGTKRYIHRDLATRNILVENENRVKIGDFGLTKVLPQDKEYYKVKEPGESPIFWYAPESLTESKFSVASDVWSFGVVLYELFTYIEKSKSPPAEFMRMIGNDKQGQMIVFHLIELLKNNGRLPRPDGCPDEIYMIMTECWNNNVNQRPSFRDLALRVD

For the compound `C[C@H](NCC(F)(F)F)c1ccc(Nc2nn([C@H]3CCCC[C@@H]3C#N)c3cc[nH]c(=O)c23)cc1` [Example 3-73, (1S,2S)-2-{4-oxo-3-[(4-{(1S)-1-[(2,2,2-trifluoroethyl)amino]ethyl}phenyl)amino]-4,5-dihydro-1H-pyrazolo[4,3-c]pyridin-1-yl}cyclohexanecarbonitrile], the IC50 is 0.45 nM on JAK2 and 0.26 nM on JAK1.
As for `CC(C)N1Cc2cc(Nc3nn([C@H]4CCCC[C@@H]4C#N)c4cc[nH]c(=O)c34)ccc2C1C` (single isomer, unassigned) [Example 19-1, (1S,2S)-2-(3-(((S or R)-2-isopropyl-1-methylisoindolin-5-yl)amino)-4-oxo-4,5-dihydro-1H-pyrazolo[4,3-c]pyridin-1-yl)cyclohexanecarbonitrile], the half-inhibitory concentration (IC50) stood at 0.89 nM at JAK2 and 0.91 nM on JAK1.
With `CS(=O)(=O)c1ccc(Nc2nn([C@H]3CCCC[C@@H]3C#N)c3cc[nH]c(=O)c23)cc1` [Example 3-5, (1S,2S)-2-(3-{[4-(methylsulfonyl)phenyl]amino}-4-oxo-4,5-dihydro-1H-pyrazolo[4,3-c]pyridin-1-yl)cyclohexanecarbonitrile], the IC50 on JAK2 stood at 0.83 nM; at JAK1, 0.12 nM.
Consider `N#C[C@H]1CCCC[C@@H]1n1nc(Nc2cccc([C@@H](N)C(F)(F)F)c2)c2c(=O)[nH]ccc21` [Example 7-2, (1S,2S)-2-[3-({3-[(1R)-1-amino-2,2,2-trifluoroethyl]phenyl}amino)-4-oxo-4,5-dihydro-1H-pyrazolo[4,3-c]pyridin-1-yl]cyclohexanecarbonitrile], for which the IC50 on JAK2 was determined as 2.2 nM; on JAK1, 0.26 nM.
Take `CC(C)(C)OC(=O)NCc1ccc(Nc2nn([C@H]3CCCC[C@@H]3C#N)c3cc[nH]c(=O)c23)cc1` [Example 3-32, tert-butyl [4-({1-[(1S,2S)-2-cyanocyclohexyl]-4-oxo-4,5-dihydro-1H-pyrazolo[4,3-c]pyridin-3-yl}amino)benzyl]carbamate]: the figures for the IC50 at JAK2 and at JAK1 were 1.5 nM and 0.45 nM, respectively.
For the compound `N#C[C@H]1CCCC[C@@H]1n1nc(Nc2ccc(-c3cnco3)cc2)c2c(=O)[nH]ccc21` [Example 15-8, (1S,2S)-2-(3-{[4-(1,3-oxazol-5-yl)phenyl]amino}-4-oxo-4,5-dihydro-1H-pyrazolo[4,3-c]pyridin-1-yl)cyclohexanecarbonitrile], the concentration for half-maximal inhibition (IC50) on JAK2 stood at 0.27 nM; on JAK1 it was 0.14 nM.
Take `N#C[C@H]1CCCC[C@@H]1n1nc(Nc2cccc([C@H](N)C(F)(F)F)c2)c2c(=O)[nH]ccc21` [Example 7-1, (1S,2S)-2-(3-((3-((S)-1-Amino-2,2,2-trifluoroethyl)phenyl)amino)-4-oxo-4,5-dihydro-H-pyrazolo[4,3-c]pyridin-1-yl)cyclohexanecarbonitrileecarbonitrile]: the values for the half-maximal inhibitory concentration (IC50) on JAK2 and at JAK1 were 1.5 nM and 0.61 nM, respectively.
For the compound `N#C[C@H]1CCCC[C@@H]1n1nc(Nc2ccc(C3(C(F)(F)F)CC3)cc2)c2c(=O)[nH]ccc21` [Example 15-19], the 50% inhibitory concentration (IC50) on JAK2 was determined as 8.1 nM; at JAK1, 1 nM.
As to `CC1(O)CN([C@@H]2CC[C@H](n3nc(Nc4ccc(Cl)cc4)c4c(=O)[nH]ccc43)[C@@H](C#N)C2)C1` [Example 5-21, (1S,2S,5R)-2-(3-((4-chlorophenyl)amino)-4-oxo-4,5-dihydro-1H-pyrazolo[4,3-c]pyridin-1-yl)-5-(3-hydroxy-3-methylazetidin-1-yl)cyclohexanecarbonitrile], the IC50 was determined as 6.5 nM at JAK2 and 0.35 nM on JAK1.
Turning to `Cc1cc(Nc2nn([C@H]3CCCC[C@@H]3C#N)c3cc[nH]c(=O)c23)ccc1-c1cnn(CCC#N)c1` [Example 15-18, (1S,2S)-2-[3-({4-[1-(2-cyanoethyl)-1H-pyrazol-4-yl]-3-methylphenyl}amino)-4-oxo-4,5-dihydro-1H-pyrazolo[4,3-c]pyridin-1-yl]cyclohexanecarbonitrile], the IC50 at JAK2 came out at 2.3 nM; on JAK1, 0.17 nM.
In the same order, the values of `N#C[C@@H]1CCCC[C@H]1n1nc(Nc2ccc(CS(=O)(=O)N3CCCC3)cc2)c2c(=O)[nH]ccc21` [Example 3-3, (1R,2R)-2-(4-oxo-3-((4-((pyrrolidin-1-ylsulfonyl)methyl)phenyl)amino)-4,5-dihydro-1H-pyrazolo[4,3-c]pyridin-1-yl)cyclohexanecarbonitrile] are 21 nM and 6.1 nM.
For the compound `CN(C)C(=O)c1ccc(Nc2nn([C@H]3CCCC[C@@H]3C#N)c3cc[nH]c(=O)c23)cc1C1CC1` [Example 3-69, 4-({1-[(1S,2S)-2-cyanocyclohexyl]-4-oxo-4,5-dihydro-1H-pyrazolo[4,3-c]pyridin-3-yl}amino)-2-cyclopropyl-N,N-dimethylbenzamide], the concentration for half-maximal inhibition (IC50) came to 5.7 nM on JAK2 and 2.1 nM at JAK1.
In the case of `Cc1cc(Nc2nn([C@@H]3CCCCC[C@H]3C#N)c3cc[nH]c(=O)c23)ccc1C(O)C(F)(F)F` (single isomer, unassigned) [Example 15-68, (1R,2R or 1S,2S)-2-[3-({3-methyl-4-[(1R or 1S)-2,2,2-trifluoro-1-hydroxyethyl]phenyl}amino)-4-oxo-4,5-dihydro-1H-pyrazolo[4,3-c]pyridin-1-yl]cycloheptanecarbonitrile], the 50% inhibitory concentration (IC50) came out at 1.2 nM on JAK2 and 0.26 nM on JAK1.
Regarding `C[C@H](N[C@H]1CC[C@H](n2nc(Nc3ccc(OC(F)(F)F)cc3)c3c(=O)[nH]ccc32)[C@@H](C#N)C1)C1CC1` [Example 5-28, (1S,2S,5S)-5-(((S)-1-cyclopropylethyl)amino)-2-(4-oxo-3-((4-(trifluoromethoxy)phenyl)amino)-4,5-dihydro-1H-pyrazolo[4,3-c]pyridin-1-yl)cyclohexanecarbonitrile], the values for the concentration for half-maximal inhibition (IC50) on JAK2 and on JAK1 were 37 nM and 0.5 nM, respectively.
As for `COCC(C)(C)CN1Cc2cc(Nc3nn([C@H]4CCCC[C@@H]4C#N)c4cc[nH]c(=O)c34)ccc2S1(=O)=O` [Example 3-159, (1S,2S)-2-(3-((2-(3-methoxy-2,2-dimethylpropyl)-1,1-dioxido-2,3-dihydrobenzo[d]isothiazol-5-yl)amino)-4-oxo-4,5-dihydro-1H-pyrazolo[4,3-c]pyridin-1-yl)cyclohexanecarbonitrile], the IC50 at JAK2 amounted to 0.44 nM; on JAK1 it was 0.059 nM.
Take `N#C[C@H]1CCC[C@@H]1n1nc(Nc2ccc3c(c2)CN(CC(F)(F)F)S3(=O)=O)c2c(=O)[nH]ccc21` [Example 3-101, (1S,2S)-2-(3-{[1,1-dioxido-2-(2,2,2-trifluoroethyl)-2,3-dihydro-1,2-benzisothiazol-5-yl]amino}-4-oxo-4,5-dihydro-1H-pyrazolo[4,3-c]pyridin-1-yl)cyclopentanecarbonitrile]: the results for the IC50 at JAK2 and at JAK1 were 0.5 nM and 0.056 nM, respectively.
In the same order, the values of `Cc1cc(Nc2nn([C@H]3CCCCC[C@@H]3C#N)c3cc[nH]c(=O)c23)ccc1C(=O)N1CCCC1` (single isomer, unassigned) [Example 15-47, (1S,2S or 1R,2R)-2-(3-{[3-methyl-4-(pyrrolidin-1-ylcarbonyl)phenyl]amino}-4-oxo-4,5-dihydro-1H-pyrazolo[4,3-c]pyridin-1-yl)cycloheptanecarbonitrile] are 14 nM and 19 nM.
For the compound `CC(C)NS(=O)(=O)c1ccc(Nc2nn([C@H]3CCCC[C@@H]3C#N)c3cc[nH]c(=O)c23)cc1` [Example 3-18, 4-({1-[(1S,2S)-2-cyanocyclohexyl]-4-oxo-4,5-dihydro-1H-pyrazolo[4,3-c]pyridin-3-yl}amino)-N-(1-methylethyl)benzenesulfonamide], the concentration for half-maximal inhibition (IC50) is 0.37 nM at JAK2 and 0.12 nM on JAK1.
Consider `CC(C)(O)c1cn(Cc2cccc(Nc3nn([C@H]4CCCC[C@@H]4C#N)c4cc[nH]c(=O)c34)c2)nn1` [Example 3-84, (1S,2S)-2-{3-[(3-{[4-(1-hydroxy-1-methylethyl)-1H-1,2,3-triazol-1-yl]methyl}phenyl)amino]-4-oxo-4,5-dihydro-1H-pyrazolo[4,3-c]pyridin-1-yl}cyclohexanecarbonitrile], for which the values for the IC50 on JAK2 and on JAK1 were 2.6 nM and 0.52 nM, respectively.
Turning to `CC1c2cc(Nc3nn([C@H]4CCCC[C@@H]4C#N)c4cc[nH]c(=O)c34)ccc2S(=O)(=O)N1C` (single isomer, unassigned) [Example 3-127, (1S,2S)-2-(3-(((R or S)-2,3-dimethyl-1,1-dioxido-2,3-dihydrobenzo[d]isothiazol-5-yl)amino)-4-oxo-4,5-dihydro-1H-pyrazolo[4,3-c]pyridin-1-yl)cyclohexanecarbonitrile], the IC50 is 2.6 nM on JAK2 and 0.33 nM at JAK1.
As to `CN(C)Cc1cccc(Nc2nn([C@H]3CCCC[C@@H]3C#N)c3cc[nH]c(=O)c23)c1` [Example 3-34, (1S,2S)-2-[3-({3-[(dimethylamino)methyl]phenyl}amino)-4-oxo-4,5-dihydro-1H-pyrazolo[4,3-c]pyridin-1-yl]cyclohexanecarbonitrile], the IC50 at JAK2 and on JAK1 was 1.1 nM throughout.
Turning to `N#C[C@H]1CCCCC[C@@H]1n1nc(Nc2ccc3c(c2)CN(C2CCOCC2)S3(=O)=O)c2c(=O)[nH]ccc21` (single isomer, unassigned) [Example 15-54, (1S,2S or 1R,2R)-2-(3-{[1,1-dioxido-2-(tetrahydro-2H-pyran-4-yl)-2,3-dihydro-1,2-benzisothiazol-5-yl]amino}-4-oxo-4,5-dihydro-1H-pyrazolo[4,3-c]pyridin-1-yl)cycloheptanecarbonitrile], the values for the IC50 at JAK2 and on JAK1 were 0.4 nM and 0.081 nM, respectively.
Regarding `N#C[C@H]1C[C@@H](N2CCC2)CC[C@@H]1n1nc(Nc2ccc(Cl)c(F)c2)c2c(=O)[nH]ccc21` [Example 5-4, (1S,2S,5S)-5-(azetidin-1-yl)-2-(3-((4-chloro-3-fluorophenyl)amino)-4-oxo-4,5-dihydro-1H-pyrazolo[4,3-c]pyridin-1-yl)cyclohexanecarbonitrile], the half-maximal inhibitory concentration (IC50) at JAK2 worked out at 31 nM; on JAK1, 1.7 nM.
Turning to `N#C[C@H]1CCCC[C@@H]1n1nc(Nc2ccnc(F)c2)c2c(=O)[nH]ccc21` [Example 3-2, (1S,2S)-2-{3-[(2-fluoropyridin-4-yl)amino]-4-oxo-4,5-dihydro-1H-pyrazolo[4,3-c]pyridin-1-yl}cyclohexanecarbonitrile], the results for the IC50 on JAK2 and on JAK1 were 5.4 nM and 0.4 nM, respectively.
